In ChEMBL document CHEMBL1201862, “PubChem BioAssay data set” (2004):
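A five-concentration, 48-hour dose response in 96-well plates underlies each endpoint, interpolated linearly between surrounding concentrations. Here, GI50 denotes the concentration required for 50% inhibition of growth.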 Active and inactive are the calls of the source. No stated cut-off is given here; in the data, active = GI50 up to about 1.1 µM and inactive = higher.

Key:
Test in all cases: NCI anticancer screen, dose series, 48 h
UACC-257 = system: UACC-257
TK-10 = system: TK-10
SK-OV-3 = system: SK-OV-3
MDA-MB-231 = system: MDA-MB-231
T47D = system: T47D
NCI/ADR-RES = system: NCI/ADR-RES
HCT-15 = system: HCT-15
Hs-578T = system: Hs-578T
SF-539 = system: SF-539
SNB-75 = system: SNB-75
A549 = system: A549
Malme-3M = system: Malme-3M
ACHN = system: ACHN
SN12C = system: SN12C
CCRF-CEM = system: CCRF-CEM
SK-MEL-28 = system: SK-MEL-28
A498 = system: A498
KM12 = system: KM12
UACC-62 = system: UACC-62
DMS-114 = system: DMS-114

For `COc1ccc(NC(=O)CC(=O)N2N=C(C)C(/N=N\c3ccc(S(=O)(=O)c4ccc(/N=N/C5C(=O)N(C(=O)CC(=O)Nc6ccc(OC)cc6)N=C5C)cc4)cc3)C2=O)cc1` (stereo not drawn), the GI50 (UACC-257) was > 100 µM (inactive), the GI50 (TK-10) was > 100 µM (inactive) and the GI50 (SK-OV-3) was > 100 µM (inactive). The GI50 (MDA-MB-231) was > 100 µM (inactive), the GI50 (T47D) was > 100 µM (inactive) and the GI50 (NCI/ADR-RES) was > 100 µM (inactive). For the same compound, the GI50 (HCT-15) was > 100 µM, the GI50 (Hs-578T) was 25 µM (inactive) and the GI50 (SF-539) was > 100 µM (inactive). For the same compound, the GI50 (SNB-75) was 24.9 µM (inactive), the GI50 (A549) was > 100 µM (inactive) and the GI50 (Malme-3M) was > 100 µM (inactive). For the same compound, the GI50 (ACHN) was > 100 µM (inactive), the GI50 (SN12C) was > 100 µM (inactive) and the GI50 (CCRF-CEM) was > 100 µM (inactive). For the same compound, the GI50 (SK-MEL-28) was > 100 µM (inactive), the GI50 (A498) was > 100 µM (inactive) and the GI50 (KM12) was > 100 µM (inactive). For the same compound, the GI50 (UACC-62) was > 100 µM (inactive).
For `CC(=O)OC1CCn2nnc(CO[Si](C)(C)C(C)(C)C)c21` (stereo not drawn), the GI50 (UACC-257) was > 100 µM (inactive), the GI50 (TK-10) was > 100 µM (inactive) and the GI50 (SK-OV-3) was > 100 µM (inactive). The GI50 (HCT-15) was > 100 µM, the GI50 (DMS-114) was > 100 µM (inactive) and the GI50 (SF-539) was > 100 µM (inactive). The GI50 (SNB-75) was 21 µM (inactive), the GI50 (A549) was > 100 µM (inactive) and the GI50 (Malme-3M) was > 100 µM (inactive). For the same compound, the GI50 (ACHN) was > 100 µM (inactive), the GI50 (SN12C) was > 100 µM (inactive) and the GI50 (SK-MEL-28) was > 100 µM (inactive). For the same compound, the GI50 (KM12) was > 100 µM (inactive).
`Cc1cc(N(CCC#N)S(=O)(=O)c2ccccc2)ccc1/C=C1\N=C(c2ccc(Cl)cc2)OC1=O` was tested, and the GI50 (UACC-257) was > 100 µM (inactive), the GI50 (HCT-15) was > 100 µM and the GI50 (DMS-114) was > 100 µM (inactive). The GI50 (SF-539) was > 100 µM (inactive), the GI50 (A549) was > 100 µM (inactive) and the GI50 (Malme-3M) was > 100 µM (inactive). For the same compound, the GI50 (ACHN) was > 100 µM (inactive), the GI50 (SN12C) was > 100 µM (inactive) and the GI50 (CCRF-CEM) was 55.5 µM (inactive). For the same compound, the GI50 (SK-MEL-28) was > 100 µM (inactive), the GI50 (A498) was > 100 µM (inactive) and the GI50 (KM12) was > 100 µM (inactive). For the same compound, the GI50 (UACC-62) was > 100 µM (inactive).
With `CN(O)C(=O)Cc1ccccc1` the GI50 (UACC-257) was > 100 µM (inactive), the GI50 (TK-10) was > 100 µM (inactive) and the GI50 (SK-OV-3) was > 100 µM (inactive). For the same compound, the GI50 (DMS-114) was > 100 µM (inactive), the GI50 (SF-539) was > 100 µM (inactive) and the GI50 (SNB-75) was 67 µM (inactive). The GI50 (A549) was > 100 µM (inactive), the GI50 (Malme-3M) was > 100 µM (inactive) and the GI50 (ACHN) was > 100 µM (inactive). The GI50 (SN12C) was > 100 µM (inactive), the GI50 (CCRF-CEM) was > 100 µM (inactive) and the GI50 (SK-MEL-28) was > 100 µM (inactive). For the same compound, the GI50 (KM12) was > 100 µM (inactive) and the GI50 (UACC-62) was > 100 µM (inactive).
With `N#C/C(=C1\N=C(c2ccccc2O)Oc2ccccc21)c1ccc([N+](=O)[O-])cc1` the GI50 (UACC-257) was > 100 µM (inactive), the GI50 (TK-10) was > 100 µM (inactive) and the GI50 (SK-OV-3) was > 100 µM (inactive). For the same compound, the GI50 (MDA-MB-231) was > 100 µM (inactive), the GI50 (T47D) was > 100 µM (inactive) and the GI50 (NCI/ADR-RES) was > 100 µM (inactive). The GI50 (HCT-15) was > 100 µM, the GI50 (Hs-578T) was 62.2 µM (inactive) and the GI50 (SF-539) was 66.5 µM (inactive). For the same compound, the GI50 (SNB-75) was 70.6 µM (inactive), the GI50 (A549) was > 100 µM (inactive) and the GI50 (Malme-3M) was > 100 µM (inactive). For the same compound, the GI50 (ACHN) was > 100 µM (inactive), the GI50 (SN12C) was > 100 µM (inactive) and the GI50 (CCRF-CEM) was > 100 µM (inactive). For the same compound, the GI50 (SK-MEL-28) was > 100 µM (inactive), the GI50 (A498) was > 100 µM (inactive) and the GI50 (KM12) was > 100 µM (inactive). For the same compound, the GI50 (UACC-62) was > 100 µM (inactive).
